Target: T1, aldose reductase (Rattus norvegicus, UniProt P07943)
T1 construct: the lenses were excised and homogenized in cold distilled water; from tissue; host or cells: lens of male SD rats, homogenate supernatant (crude enzyme)
Test: Inhibitory activity against aldose reductase (crude enzyme from rat lenses, NADPH oxidation at 340 nm, D,L-glyceraldehyde substrate)
Format: biochemical
Conditions: aldose reductase from SD rat lenses, pH 6.2, 30° C.; for inhibition at 10 µM: pH 6.2, 10^-5 M; for inhibition at 10 µM / inhibition at 1 µM: read-out: Percentage of inhibition (%); for inhibition at 1 µM: pH 6.2, 10^-6 M
Method: The compounds of the present invention were evaluated for the inhibitory activity against aldose reductase according to the following assay procedure.
Enzyme activity was assayed according to the modification [Biochemical Pharmacology, 25, 2505 (1976)] of the method described in J. Biol. Chem., 240, 877-882 (1965).
SD strain male rats were sacrificed by decapitation, the lenses were excised and homogenized in cold distilled water. The homogenate was then centrifuged and the supernatant was used as the crude aldose reductase solution.
Separately, a 0.1 M sodium phosphate buffer (pH 6.2) containing 0.4 M ammonium sulfate was prepared at 30° C. In this buffer were dissolved the present compound, the crude aldose reductase solution and nicotinamide-adenine dinucleotide phosphate, reduced form (NADPH). The mixture was preincubated at 30° C. for 3 minutes and the reaction was initiated by addition of D,L-glyceraldehyde. In this case, the concentration of the present compound dissolved was 10^-5 M and 10^-6 M, respectively. The total amount of the assay mixture was 1.0 ml, containing 0.16 mM of NADPH, 10 mM of D,L-glyceraldehyde and 0.010-0.016 units of aldose reductase.
The inhibitory activity of the present compounds against aldose reductase was measured using each 1.0 ml of the reaction mixture containing the present compound in the above concentration. In this measurement, the rate of NADPH oxidation was followed by recording the decrease in absorbance at 340 nm. The inhibitory activity of the present compounds against aldose reductase as measured was expressed in percentage of inhibition (%) as a relative activity based on a control value.

Row | SMILES | inhibition at 10 µM [%] | Percentage of inhibition (%) (10^-5 M) | inhibition at 1 µM [%] | Percentage of inhibition (%) (10^-6 M)
1 | CCOC(=O)CCC(C=Cc1cccs1)=C1SC(=S)NC1=O (single isomer, unassigned) [13 Isomer B] |  | 54.3 |  | 
2 | CCCC(C=Cc1ccc(C(=O)O)cc1)=C1SC(=S)NC1=O (single isomer, unassigned) [3 Isomer A] | 77.1 |  | 29.7 | 
3 | CCOC(=O)COc1ccc(C=CC(C)=C2SC(=S)N(C)C2=O)cc1OC (single isomer, unassigned) [55 Isomer A] | 38.1 |  | 23.8 | 
4 | CCC(CCc1cccn1CCC(=O)O)=C1SC(=S)NC1=O [Example 34, 3-{2-[3-(4-Oxo-2-thioxo-5-thiazolidinylidene)pentyl]pyrrol-1-yl}propionic acid] | 80.8 |  | 35.5 | 
5 | COc1cc(C=CC(C)=C2SC(=S)NC2=O)ccc1OCC(=O)O [Example 32, 4-[3-(4-Oxo-2-thioxo-5-thiazolidinylidene)-1-butenyl]-2-methoxyphenoxyacetic acid] | 92.5 |  | 84.7 | 
6 | CCOC(=O)CCC(C=Cc1cccc(O)c1)=C1SC(=S)NC1=O (single isomer, unassigned) [8 Isomer A] | 57.9 |  |  | 
7 | COC(=O)c1ccccc1NC(=O)C(C)=C1SC(=S)NC1=O [Example 18, Methyl N-[2-(4-oxo-2-thioxo-5-thiazolidinylidene)propionyl]anthranilate] | 84 |  | 62.6 | 
8 | COC(=O)COc1ccc(C=CC(C)=C2SC(=S)NC2=O)cc1OCC(=O)OC (single isomer, unassigned) [60 Isomer B] |  | 70.3 |  | 30.4
9 | CCCC(CCc1ccccc1OCC(=O)O)=C1SC(=S)NC1=O (single isomer, unassigned) [27 Isomer B] |  | 83.8 |  | 45.9
10 | CC(C=Cc1ccc(OCC(=O)O)c(OCC(=O)O)c1)=C1SC(=S)NC1=O (single isomer, unassigned) [83 Isomer A] | 82.4 |  | 43.4 | 

Further lines, results first:

Row | inhibition at 10 µM [%] | Percentage of inhibition (%) (10^-5 M) | inhibition at 1 µM [%] | Percentage of inhibition (%) (10^-6 M) | SMILES
11 | 56.4 |  |  |  | CC(CCCC(=O)Nc1ccccc1C(=O)O)=C1SC(=S)NC1=O [Example 37, N-[5-(4-Oxo-2-thioxo-5-thiazolidinylidene)hexanoyl]anthranilic acid]
12 | 39.1 |  |  |  | CCOc1cc(C=CC(C)=C2SC(=S)NC2=O)ccc1OCC(=O)OC [Example 44, Methyl 2-ethoxy-4-[3-(4-oxo-2-thioxo-5-thiazolinylidene)-1-butenyl]phenoxyacetate]
13 | 38.8 |  |  |  | COC(=O)COc1ccccc1C=CC(C)=C1SC(=S)NC1=O [Example 40, Methyl 2-[3-(4-oxo-2-thioxo-5-thiazolinylidene)-1-butenyl]phenoxyacetate]
14 | 80.1 |  | 24.8 |  | COc1cccc(C=CC(C)=C2SC(=S)NC2=O)c1OCC(=O)O [Example 72, 2-Methoxy-6-[3-(4-oxo-2-thioxo-5-thiazolinylidene)-1-butenyl] phenoxyacetic acid]
15 | 88.5 |  | 58.6 |  | COc1cc(C=C(C)C=C2SC(=S)NC2=O)ccc1OCC(=O)O [Example 76, 2-Methoxy-4-[2-methyl-3-(4-oxo-2-thioxo-5-thiazolinylidene)-1-propenyl]phenoxyacetic acid]
16 | 92 |  | 77.6 |  | CCCC(=Cc1ccccc1OCC(=O)O)C=C1SC(=S)NC1=O [Example 84, 2-[2-Propyl-3-(4-oxo-2-thioxo-5-thiazolinylidene)-1-propenyl]phenoxyacetic acid]
17 | 95.3 |  | 87.6 |  | CC(C=Cc1cc(Cl)ccc1OCC(=O)O)=C1SC(=S)NC1=O [Example 75, 4-Chloro-2-[3-(4-oxo-2-thioxo-5-thiazolinylidene)-1-butenyl]phenoxyacetic acid]
18 |  | 89.7 |  | 69.6 | CC(=Cc1ccccc1OCC(=O)O)C=C1SC(=S)NC1=O [Example 86, 2-[2-Methyl-3-(4-oxo-2-thioxo-5-thiazolinylidene)-1-propenyl]phenoxyacetic acid]

From US5116855A, “Rhodanine derivatives and pharmaceutical compositions” (Nisshin Flour Milling Co., Ltd., priority 1989, dated 1992)
